Measured values published in patent US10138238B2, “Pesticidally active polycyclic derivatives with sulfur containing substituents” (Syngenta Participations AG, priority 2015, dated 2018).

How the values were obtained:
Type in all cases: in vivo
[1] = tested on: Diabrotica balteata (Corn Root Worm); test: Example B13: Breakpoint (BP80) against Diabrotica balteata; details: lowest concentration which gives 80% larval mortality; larval feeding/contact
Procedure: (§1) Maize sprouts placed onto an agar layer in 24-well microtiter plates were treated with aqueous test solutions prepared from 10'000 ppm DMSO stock solutions by spraying. After drying, the plates were infested with L2 larvae (6 to 10 per well). The samples were assessed for mortality and growth inhibition in comparison to untreated samples 4 days after infestation. The following compounds gave an effect of at least 80% in at least one of the two categories (mortality or growth inhibition) at an application rate of 200 ppm: P1, P2, P3, P4, P5, P6, P7, P8, P9, P10, P11, P12, P13, P14, and P15.
(§2) Insecticidal action against Diabrotica balteata (Corn root worm), Plutella xylostella (Diamond black moth), and Spodoptera littoralis (Egyptian cotton leaf worm). The tests were carried out as described in biological examples B2, B6 and B7, respectively, with the larval feeding/contact activity being reported as Breakpoint (BP80) values in parts per million (i.e. the lowest concentration which gives 80% larval mortality).

[2] = tested on: Plutella xylostella (Diamond Back Moth); test: Example B6: Plutella xylostella, artificial diet, L2 larvae; details: 120 h, application rate of 200 ppm, 5 days after infestation, read-out: effect in at least one of the two categories (mortality or growth inhibition)
Procedure: (§3) 24-well microtiter plates with artificial diet were treated with aqueous test solutions prepared from 10'000 ppm DMSO stock solutions by pipetting. After drying, the plates were infested with L2 larvae (10 to 15 per well). The samples were assessed for mortality and growth inhibition in comparison to untreated samples 5 days after infestation. The following compounds gave an effect of at least 80% in at least one of the two categories (mortality or growth inhibition) at an application rate of 200 ppm: P1, P2, P3, P4, P6, P8, P9, P10, P11, P12, P13, P14 and P15.

[3] = tested on: Plutella xylostella (Diamond black moth); test: Example B13: Breakpoint (BP80) against Plutella xylostella; details: lowest concentration which gives 80% larval mortality; larval feeding/contact
Procedure: as §3, §2

[4] = tested on: Spodoptera littoralis (Egyptian Cotton Leaf Worm); test: Example B13: Breakpoint (BP80) against Spodoptera littoralis; details: lowest concentration which gives 80% larval mortality; larval feeding/contact
Procedure: (§4) Cotton leaf discs were placed onto agar in 24-well microtiter plates and sprayed with aqueous test solutions prepared from 10'000 ppm DMSO stock solutions. After drying the leaf discs were infested with five L1 larvae. The samples were assessed for mortality, anti-feeding effect, and growth inhibition in comparison to untreated samples 3 days after infestation. Control of Spodoptera littoralis by a test sample is given when at least one of the categories mortality, anti-feedant effect, and growth inhibition is higher than the untreated sample.
as §2

[5] = tested on: Spodoptera littoralis (Egyptian Cotton Leaf Worm); test: Example B7: Spodoptera littoralis, cotton leaf discs, L1 larvae; details: foliar, 72 h, application rate of 200 ppm, 3 days after infestation
Procedure: as §4

[6] = tested on: Diabrotica balteata (Corn Root Worm); test: Example B2: Diabrotica balteata, maize sprouts, L2 larvae; details: 96 h, application rate of 200 ppm, 4 days after infestation, read-out: effect in at least one of the two categories (mortality or growth inhibition)
Procedure: as §1

[7] = tested on: Euschistus heros (Neotropical Brown Stink Bug); test: Example B3: Euschistus heros, soybean leaves, N2 nymphs; details: 120 h, application rate of 200 ppm, 5 days after infestation, read-out: effect in at least one of the two categories (mortality or growth inhibition)
Procedure: Soybean leaves on agar in 24-well microtiter plates were sprayed with aqueous test solutions prepared from 10'000 ppm DMSO stock solutions. After drying the leaves were infested with N2 nymphs. The samples were assessed for mortality and growth inhibition in comparison to untreated samples 5 days after infestation. The following compounds gave an effect of at least 80% in at least one of the two categories (mortality or growth inhibition) at an application rate of 200 ppm: • P1, P3, P8, P9, P10, P13, P14, and P15

[8] = tested on: Diabrotica balteata (Corn Root Worm); test: Example B14: Breakpoint (BP80) against Diabrotica balteata; details: lowest concentration which gives 80% larval mortality; Table B14
Procedure: as §1
Insecticidal action against Diabrotica balteata (Corn root worm). The test were carried out as described in biological example B6 with the larval feeding contact activity being reported as Breakpoint (BP80) values in parts per million (i.e. the lowest concentration which gives 80% larval mortality).

[9] = tested on: Bemisia tabaci (Cotton White Fly); test: Example B1: Bemisia tabaci feeding/contact activity; details: 144 h, application rate of 200 ppm, adult white flies, 6 days after incubation
Procedure: Cotton leaf discs were placed on agar in 24-well microtiter plates and sprayed with aqueous test solutions prepared from 10'000 ppm DMSO stock solutions. After drying the leaf discs were infested with adult white flies. The samples were checked for mortality 6 days after incubation.

[10] = tested on: Myzus persicae (Green Peach Aphid); test: Example B4: Myzus persicae feeding/contact activity; details: 144 h, application rate of 200 ppm, 6 days after infestation
Procedure: Sunflower leaf discs were placed onto agar in a 24-well microtiter plate and sprayed with aqueous test solutions prepared from 10'000 ppm DMSO stock solutions. After drying, the leaf discs were infested with an aphid population of mixed ages. The samples were assessed for mortality 6 days after infestation.

[11] = tested on: Spodoptera littoralis (Egyptian Cotton Leaf Worm); test: Example B8: Spodoptera littoralis systemic activity; details: 144 h, test rate of 12.5 ppm, lettuce, 6 days after infestation, read-out: effect in at least one of the three categories (mortality, anti-feeding, or growth inhibition)
Text: Test compounds were applied by pipette from 10'000 ppm DMSO stock solutions into 24-well plates and mixed with agar. Lettuce seeds were placed onto the agar and the multi well plate was closed by another plate which contained also agar. After 7 days the compound was absorbed by the roots and the lettuce grew into the lid plate. The lettuce leaves were then cut off into the lid plate. Spodoptera eggs were pipetted through a plastic stencil onto a humid gel blotting paper and the lid plate was closed with it. The samples were assessed for mortality, anti-feedant effect and growth inhibition in comparison to untreated samples 6 days after infestation. The following compounds gave an effect of at least 80% in at least one of the three categories (mortality, anti-feeding, or growth inhibition) at a test rate of 12.5 ppm: • P10, P13, P14 and P15.

[12] = tested on: Tetranychus urticae (Two-Spotted Spider Mite); test: Example B9: Tetranychus urticae feeding/contact activity; details: 192 h, application rate of 200 ppm, mixed population (mobile stages), 8 days after infestation, read-out: mortality
Procedure: Bean leaf discs on agar in 24-well microtiter plates were sprayed with aqueous test solutions prepared from 10'000 ppm DMSO stock solutions. After drying the leaf discs were infested with a mite population of mixed ages. The samples were assessed for mortality on mixed population (mobile stages) 8 days after infestation.

Structure (SMILES) | BP80 Values Diabrotica balteata [1] [ppm] | percent effect (mortality or growth inhibition) at 200 ppm [2] [%] | BP80 Values Plutella xylostella [3] [ppm] | BP80 Values Spodoptera littoralis [4] [ppm] | percent control (mortality, anti-feedant effect or growth inhibition) at 200 ppm [5] [%] | percent effect (mortality or growth inhibition) at 200 ppm [6] [%] | percent effect (mortality or growth inhibition) at 200 ppm [7] [%] | BP80 Values Diabrotica balteata [8] [ppm] | mortality at 200 ppm [9] [%] | mortality at 200 ppm [10] [%] | percent effect (mortality, anti-feeding or growth inhibition) at 12.5 ppm [11] [%] | mortality at 200 ppm [12] [%]
CCS(=O)(=O)c1ccc(-c2ccc(Cl)cc2)nc1-c1nc2cc(C(F)(F)F)ncc2n1C [Compound P1, 2-[6-(4-chlorophenyl)-3-ethylsulfonyl-2-pyridyl]-3-methyl-6-(trifluoromethyl)imidazo[4,5-c]pyridine] | 3 | ≥ 80 | 12 | 12 | ≥ 80 | ≥ 80 | ≥ 80 |  |  |  |  | 
CCS(=O)(=O)c1ccc(/C=C/c2ccccc2C(F)(F)F)nc1-c1nc2cc(C(F)(F)F)ncc2n1C [Compound P2, 2-[3-ethylsulfonyl-6-[(E)-2-[2-(trifluoromethyl)phenyl]vinyl]-2-pyridyl]-3-methyl-6-(trifluoromethyl)imidazo[4,5-c]pyridine] |  | ≥ 80 |  |  | ≥ 80 | ≥ 80 |  |  |  |  |  | 
CCS(=O)(=O)c1cc(C(F)(F)F)c(-c2ccc(C(F)(F)F)cc2)nc1-c1nc2cc(C(F)(F)F)ncc2n1C [Compound P4, 2-[3-ethylsulfonyl-5-(trifluoromethyl)-6-[4-(trifluoromethyl)phenyl]-2-pyridyl]-3-methyl-6-(trifluoromethyl)imidazo[4,5-c]pyridine] |  | ≥ 80 |  |  | ≥ 80 | ≥ 80 |  | 10 |  |  |  | 
CCS(=O)(=O)c1cc(C(F)(F)F)c(-c2cccc(C(F)(F)F)c2)nc1-c1nc2cc(C(F)(F)F)ncc2n1C [Compound P5] |  |  |  |  | ≥ 80 | ≥ 80 |  | 10 |  |  |  | 
CCS(=O)(=O)c1cc(C(F)(F)F)c(-c2ccccc2Cl)nc1-c1nc2cc(C(F)(F)F)ncc2n1C [Compound P6] |  | ≥ 80 |  |  | ≥ 80 | ≥ 80 |  |  |  |  |  | 
CCS(=O)(=O)c1ccc(-c2cc(F)cc(F)c2)nc1-c1nc2cc(C(F)(F)F)ncc2n1C [Compound P8, 2-[6-(3,5-difluorophenyl)-3-ethylsulfonyl-2-pyridyl]-3-methyl-6-(trifluoromethyl)imidazo[4,5-c]pyridine] |  | ≥ 80 |  |  | ≥ 80 | ≥ 80 | ≥ 80 |  |  |  |  | 
CCS(=O)(=O)c1ccc(-n2ccc(C(F)(F)F)n2)nc1-c1nc2cc(SC(F)(F)F)ncc2n1C [Compound P9, 2-[3-ethylsulfonyl-6-[3-(trifluoromethyl)pyrazol-1-yl]-2-pyridyl]-3-methyl-6-(trifluoromethylsulfanyl)imidazo[4,5-c]pyridine] |  | ≥ 80 |  |  | ≥ 80 | ≥ 80 | ≥ 80 |  | ≥ 80 |  |  | 
CCS(=O)(=O)c1ccc(-n2ccc(Cl)n2)nc1-c1nc2cc(SC(F)(F)F)ncc2n1C [Compound P11] |  | ≥ 80 |  |  | ≥ 80 | ≥ 80 |  |  |  |  |  | 
CCS(=O)(=O)c1ccc(C2CC2)nc1-c1nc2cc(Br)ncc2n1C [Compound P12, 6-bromo-2-(6-cyclopropyl-3-ethylsulfonyl-2-pyridyl)-3-methyl-imidazo[4,5-c]pyridine] |  | ≥ 80 |  |  | ≥ 80 | ≥ 80 |  |  |  |  |  | 
CCS(=O)(=O)c1ccc(C2CC2)nc1-c1nc2cc(SC(F)(F)F)ncc2n1C [Compound P13, 2-(6-cyclopropyl-3-ethylsulfonyl-2-pyridyl)-3-methyl-6-(trifluoromethylsulfanyl)imidazo[4,5-c]pyridine] |  | ≥ 80 |  |  | ≥ 80 | ≥ 80 | ≥ 80 |  | ≥ 80 | ≥ 80 | ≥ 80 | ≥ 80
CCS(=O)(=O)c1ccc(C2CC2)nc1-c1nc2cc(C(F)(F)F)nnc2n1C [Compound P14, 6-(6-cyclopropyl-3-ethylsulfonyl-2-pyridyl)-7-methyl-3-(trifluoromethyl)imidazo[4,5-c]pyridazine] |  | ≥ 80 |  |  | ≥ 80 | ≥ 80 | ≥ 80 |  | ≥ 80 | ≥ 80 | ≥ 80 | 
CCS(=O)(=O)c1ccc(C2CC2)nc1-c1nc2cc(C(F)(F)F)ncc2n1C [Compound P15, 2-(6-cyclopropyl-3-ethylsulfonyl-2-pyridyl)-3-methyl-6-(trifluoromethyl)imidazo[4,5-c]pyridine] |  | ≥ 80 |  |  | ≥ 80 | ≥ 80 | ≥ 80 |  |  | ≥ 80 | ≥ 80 | 
CCS(=O)(=O)c1cc(C(F)(F)F)cnc1-c1nc2cc(C(F)(F)F)ncc2n1C [Compound V12.01, reference compound] |  |  |  |  |  |  |  | 16 |  |  |  | 
CCS(=O)(=O)c1cccnc1-c1nc2cc(C(F)(F)F)ncc2n1C [Compound V12.03, reference compound] | 16 |  | 250 | 250 |  |  |  |  |  |  |  | 
